Experimental data reported in PubChem BioAssay (NCI).
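Step 1: Grow cells in 96-well plates. Step 2: Expose to compound for 48 hours at 5 concentrations. Step 3: Interpolate endpoints linearly; if unreached, use highest concentration. GI50: concentration for 50% inhibition of growth. TGI marks complete inhibition of growth.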

Key:
Test in all cases: growth of human tumour cells (NCI), 48 h
[1] = tested on: BT-549 breast
[2] = tested on: CAKI-1 renal
[3] = tested on: HCT-15 colon
[4] = tested on: HS 578T breast
[5] = tested on: NCI-H522 lung
[6] = tested on: OVCAR-5 ovarian
[7] = tested on: SK-MEL-28 melanoma
[8] = tested on: T-47D breast
[9] = tested on: SNB-78 CNS
[10] = tested on: HOP-18 NSCLC

Row | SMILES | TGI [1] | TGI [2] | TGI [3] | TGI [4] | TGI [5] | TGI [6] | TGI [7] | TGI [8] | GI50 [1] | GI50 [2] | GI50 [3] | GI50 [4] | GI50 [5] | GI50 [6] | GI50 [7] | GI50 [8] | TGI [9] | GI50 [10] | TGI [10]
1 | NS(=O)(=O)c1cc2c(cc1Cl)NC(Cc1ccccc1)NS2(=O)=O (configuration not stated) | > 100 µM | > 100 µM | > 100 µM | > 100 µM | > 100 µM | > 100 µM | > 100 µM | > 100 µM |  |  |  |  |  |  |  |  |  |  | 
2 | COc1ccccc1-n1c(-c2cc(O)ccc2C)cn2c3c(=O)[nH]c(=O)n(C)c3nc12 | > 100 µM | 7.05 µM | > 100 µM | 5.75 µM | > 100 µM | > 100 µM | > 100 µM | > 100 µM | 20.5 µM | 2.95 µM | 54.7 µM | 0.567 µM | 1.79 µM | 28.1 µM | > 100 µM | 42.4 µM |  |  | 
3 | CCN(CC)c1cc(/C=C/c2ccc(OC)c(OC)c2)nc2cc(F)c(F)cc12 | 5.28 µM | > 100 µM | > 100 µM | 12.3 µM | > 100 µM | > 100 µM | > 100 µM | 18.4 µM | 2.03 µM | 19 µM | 22.8 µM | 3.09 µM | 6.35 µM | 20.3 µM | 14.9 µM | 3.38 µM |  |  | 
4 | CN1CCCNc2c(c(=O)c2=O)NCCCN(C)CCCNc2c(c(=O)c2=O)NCCCN(C)CCCNc2c(c(=O)c2=O)NCCCN(C)CCCNc2c(c(=O)c2=O)NCCCN(C)CCCNc2c(c(=O)c2=O)NCCCN(C)CCCNc2c(c(=O)c2=O)NCCCN(C)CCCNc2c(c(=O)c2=O)NCCC1 | 19.8 µM | 13.1 µM | 22.5 µM | 31.2 µM | > 50 µM | 20.6 µM | 16.2 µM | 7.74 µM | 5.69 µM | 6.14 µM | 5.19 µM | 9.15 µM | 6.91 µM | 9.32 µM | 3.7 µM | 2.06 µM |  |  | 
5 | CS(=O)CCCCCN=C=S (configuration not stated) | 11.5 µM | 13.8 µM | 12.1 µM | 36 µM | 5.87 µM | 25.5 µM | 16.8 µM | 7.56 µM | 3.07 µM | 3.69 µM | 2.9 µM | 6.38 µM | 1.99 µM | 10.6 µM | 4.07 µM | 2.32 µM |  |  | 
6 | COc1ccc(NC(=O)n2nc(N)c3ccccc32)cc1OC | > 100 µM | > 100 µM | > 100 µM | > 100 µM | > 100 µM | > 100 µM | > 100 µM | > 100 µM | 25.9 µM | > 100 µM | 44.1 µM | 43.3 µM | 34.9 µM | 45.5 µM | > 100 µM | 33 µM |  |  | 
7 | O=C(CC1(O)C(=O)Nc2ccccc21)c1ccccc1Cl (configuration not stated) |  | > 100 µM | > 100 µM |  | > 100 µM | > 100 µM | > 100 µM |  |  |  |  |  |  |  |  |  | > 100 µM |  | 
8 | NC(CSC(c1ccccc1)(c1ccccc1)c1ccc(Cl)cc1)C(=O)O (configuration not stated) | 15.8 µM |  | 52.9 µM | 3.83 µM | 3.71 µM | > 63.9 µM | 44.3 µM | 42 µM | 0.324 µM | 0.37 µM | 0.362 µM | 0.114 µM | 0.128 µM | 0.774 µM | 2.46 µM | 0.376 µM |  |  | 
9 | CC(C)C1OC(=O)C=C1Sc1ccccc1 (configuration not stated) | > 100 µM | > 100 µM | > 100 µM | > 100 µM | > 100 µM | > 100 µM | > 100 µM | > 100 µM |  |  |  |  |  |  |  |  |  |  | 
10 | CN(C)c1ccc(C(=C2C=CC(=[N+](C)C)C=C2)c2ccc(N(C)C)cc2)cc1 (tested in a mixture with another compound) | 0.84 µM | 1.38 µM | 1.41 µM | 1.9 µM | 1.06 µM | 1.77 µM | 1.37 µM | 0.655 µM | 0.188 µM | 0.276 µM | 0.294 µM | 0.0479 µM |  | 0.559 µM | 0.141 µM | 0.0389 µM |  |  | 
11 | COc1cc2c(cc1OC)-c1cc3cc(OC)c(OC)cc3n1CC2 |  | > 100 µM |  |  | > 100 µM | > 100 µM | > 100 µM |  |  |  |  |  |  |  |  |  | > 100 µM |  | 
12 | CCCCCCCC/C=C/CCCCCCCC1=NCC[N+]1(CCO)CCO | 10.8 µM | 8.32 µM | 11 µM | 7.66 µM | 4.46 µM | 18.9 µM | 21.6 µM | 22.7 µM | 3.17 µM | 2.41 µM | 3.16 µM | 2.16 µM | 1.61 µM | 4.98 µM | 9.71 µM | 7.08 µM |  |  | 
13 | CN(C)c1ccc(N=Cc2c([O-])ccc3ccccc23)cc1.[C-]#[O+].[C-]#[O+].[Ir] |  | 40.7 µM |  |  | 18.6 µM | 64.3 µM |  |  |  | 22 µM |  |  | 5.7 µM | 29.1 µM |  |  |  | 13 µM | 27.6 µM
14 | Cc1cc2cc3cc(C)c(N(C)C)cc3nc2cc1N(C)C | 15.6 µM | 25.3 µM | > 100 µM | 18.1 µM | 30 µM | > 100 µM | 9.55 µM | > 100 µM | 4.26 µM | 2.22 µM | 12.1 µM | 1.89 µM | 3.76 µM | 8.37 µM | 2.8 µM | 1.6 µM |  |  | 
